In ChEMBL document CHEMBL5352437, “Identification and immunological evaluation of novel TLR2 agonists through structural optimization of Diprovocim” (Eur J Med Chem, 2022):
Values belong to the compound of their own block, whether it stands above or below them. Active and inactive are the calls of the source. No cut-off for these calls is given here.

Key:
Toll-like receptor 2 [1] = target: T1, Toll-like receptor 2 (Homo sapiens, UniProt O60603); assay: Agonist activity at human TLR2 expressed in HEK-Blue hTLR2 cells as SEAP expression incubated for 16 hrs by SEAP-based plate reader analysis; format: cell-based
THP-1 [2] = assay: Cytotoxicity against human THP1 cells assessed as reduction in cell viability at 100 uM incubated for 24 hrs by CCK8 assay; format: toxicity, cell-based; details: thp-1, 24 h
[3] = Cytotoxicity against human HEK-Blue hTLR2 cells assessed as reduction in cell viability at 100 uM incubated for 24 hrs by CCK8 assay; format: toxicity, cell-based; details: hek-blue htlr2, 24 h
Toll-like receptor 2 [4] = target: T1, Toll-like receptor 2; assay: Agonist activity at human TLR2 expressed in HEK-Blue hTLR2 cells assessed as activation of TLR2-triggered SEAP signaling up to 10 uM incubated for 16 hrs by SEAP-based plate reader analysis; format: cell-based; details: filed as agonist
Toll-like receptor 2 [5] = target: T1, Toll-like receptor 2; assay: Agonist activity at human TLR2 expressed in HEK-Blue hTLR2 cells assessed as activation of TLR2-triggered SEAP signaling at 0.1 uM incubated for 16 hrs in presence of anti-hTLR1 by SEAP-based plate reader analysis; format: cell-based
Toll-like receptor 2 [6] = target: T1, Toll-like receptor 2; assay: Agonist activity at human TLR2 expressed in HEK-Blue hTLR2 cells assessed as activation of TLR2-triggered SEAP signaling at 0.1 uM incubated for 16 hrs in presence of anti-hTLR2 by SEAP-based plate reader analysis; format: cell-based
THP-1 [7] = assay: Upregulation of MyD88 protein expression in human PMA-differentiated THP-1 cells at 100 nM by Western blotting analysis; format: functional, cell-based; details: time 0-120 min, TDE = time-dependent effect
THP-1 [8] = assay: Induction of p65 phosphorylation in human PMA-differentiated THP-1 cells at 100 nM incubated up to 120 mins by Western blotting analysis; format: functional, cell-based
THP-1 [9] = assay: Induction of TNFalpha production in human PMA-differentiated THP-1 cells supernatant incubated for 4 hrs by ELISA method; format: functional, cell-based
THP-1 [10] = assay: Induction of IL1beta production in human PMA-differentiated THP-1 cells supernatant incubated for 4 hrs by ELISA method; format: functional, cell-based
THP-1 [11] = assay: Induction of IL6 production in human PMA-differentiated THP-1 cells supernatant incubated for 4 hrs by ELISA method; format: functional, cell-based
THP-1 [12] = assay: Induction of p38 phosphorylation in human PMA-differentiated THP-1 cells at 100 nM incubated up to 120 mins by Western blotting analysis; format: functional, cell-based
THP-1 [13] = assay: Induction of JNK phosphorylation in human PMA-differentiated THP-1 cells at 100 nM incubated up to 120 mins by Western blotting analysis; format: functional, cell-based

T1 sequence (O60603 whole entry): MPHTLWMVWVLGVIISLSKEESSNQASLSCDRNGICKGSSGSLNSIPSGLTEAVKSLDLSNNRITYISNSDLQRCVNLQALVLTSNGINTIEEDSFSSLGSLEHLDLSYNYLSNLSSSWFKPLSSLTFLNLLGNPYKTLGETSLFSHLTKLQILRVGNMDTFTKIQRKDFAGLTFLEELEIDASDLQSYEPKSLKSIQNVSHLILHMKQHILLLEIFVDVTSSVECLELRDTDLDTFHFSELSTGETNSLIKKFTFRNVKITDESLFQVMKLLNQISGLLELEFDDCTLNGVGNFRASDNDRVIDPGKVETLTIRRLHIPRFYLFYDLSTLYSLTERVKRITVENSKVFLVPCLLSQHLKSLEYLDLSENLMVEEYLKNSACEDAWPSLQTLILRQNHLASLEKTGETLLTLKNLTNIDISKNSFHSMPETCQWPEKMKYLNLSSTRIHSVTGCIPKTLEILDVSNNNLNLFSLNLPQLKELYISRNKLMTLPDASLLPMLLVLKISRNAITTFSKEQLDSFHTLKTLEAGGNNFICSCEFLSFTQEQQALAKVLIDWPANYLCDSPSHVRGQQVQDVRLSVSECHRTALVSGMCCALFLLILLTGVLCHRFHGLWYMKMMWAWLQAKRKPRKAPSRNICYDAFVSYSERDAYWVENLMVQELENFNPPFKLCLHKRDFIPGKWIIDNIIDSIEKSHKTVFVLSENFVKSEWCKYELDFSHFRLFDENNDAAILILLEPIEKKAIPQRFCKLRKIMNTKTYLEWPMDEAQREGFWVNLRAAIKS

Structure (SMILES): O=C(N[C@H]1C[C@@H]1c1ccccc1)[C@H]1CCN(C(=O)c2ccc(C(=O)N3C[C@@H](C(=O)N[C@H]4C[C@@H]4c4ccccc4)[C@H](C(=O)N[C@H]4C[C@@H]4c4ccccc4)C3)cc2)C1
EC50 (Toll-like receptor 2 [1]): > 5000 nM

Structure (SMILES): CC(C)C1CN(C(=O)c2ccc(C(=O)N3C[C@@H](C(=O)N[C@H]4C[C@@H]4c4ccccc4)[C@H](C(=O)N[C@H]4C[C@@H]4c4ccccc4)C3)cc2)CC1C(=O)N[C@H]1C[C@@H]1c1ccccc1 (stereo not given in full)
EC50 (Toll-like receptor 2 [1]): 702 nM

Structure (SMILES): CCCC[C@H]1CN(C(=O)c2ccc(C(=O)N3C[C@@H](C(=O)N[C@H]4C[C@@H]4c4ccccc4)[C@H](C(=O)N[C@H]4C[C@@H]4c4ccccc4)C3)cc2)C[C@@H]1C(=O)N[C@H]1C[C@@H]1c1ccccc1
EC50 (Toll-like receptor 2 [1]): 35 nM
Activity (THP-1 [2]): Non-Toxic
Activity [3]: Non-Toxic
Activity (Toll-like receptor 2 [4]): Active
Activity (Toll-like receptor 2 [5]): inactive
Activity (Toll-like receptor 2 [6]): inactive
Activity (THP-1 [7]): Tde
Activity (THP-1 [8]): Active
Activity (THP-1 [9]): Dose-Dependent Effect
Activity (THP-1 [10]): Dose-Dependent Effect
Activity (THP-1 [11]): Dose-Dependent Effect
Activity (THP-1 [12]): Active
Activity (THP-1 [13]): Active

Structure (SMILES): CCCC1CN(C(=O)c2ccc(C(=O)N3C[C@@H](C(=O)N[C@H]4C[C@@H]4c4ccccc4)[C@H](C(=O)N[C@H]4C[C@@H]4c4ccccc4)C3)cc2)CC1C(=O)N[C@H]1C[C@@H]1c1ccccc1 (stereo not given in full)
EC50 (Toll-like receptor 2 [1]): 107 nM

Structure (SMILES): CCCC[C@@H]1CN(C(=O)c2ccc(C(=O)N3C[C@@H](C(=O)N[C@H]4C[C@@H]4c4ccccc4)[C@H](C(=O)N[C@H]4C[C@@H]4c4ccccc4)C3)cc2)C[C@H]1C(=O)N[C@H]1C[C@@H]1c1ccccc1
EC50 (Toll-like receptor 2 [1]): 39 nM
Activity (THP-1 [2]): Non-Toxic
Activity [3]: Non-Toxic
Activity (Toll-like receptor 2 [4]): Active
Activity (Toll-like receptor 2 [5]): inactive
Activity (Toll-like receptor 2 [6]): inactive
Activity (THP-1 [7]): Tde
Activity (THP-1 [8]): Active
Activity (THP-1 [9]): Dose-Dependent Effect
Activity (THP-1 [10]): Dose-Dependent Effect
Activity (THP-1 [11]): Dose-Dependent Effect
Activity (THP-1 [12]): Active
Activity (THP-1 [13]): Active

Structure (SMILES): CCC1CN(C(=O)c2ccc(C(=O)N3C[C@@H](C(=O)N[C@H]4C[C@@H]4c4ccccc4)[C@H](C(=O)N[C@H]4C[C@@H]4c4ccccc4)C3)cc2)CC1C(=O)N[C@H]1C[C@@H]1c1ccccc1 (stereo not given in full)
EC50 (Toll-like receptor 2 [1]): 514 nM

Structure (SMILES): O=C(N[C@H]1C[C@@H]1c1ccccc1)C1CN(C(=O)c2ccc(C(=O)N3C[C@@H](C(=O)N[C@H]4C[C@@H]4c4ccccc4)[C@H](C(=O)N[C@H]4C[C@@H]4c4ccccc4)C3)cc2)CC1CO (stereo not given in full)
EC50 (Toll-like receptor 2 [1]): > 5000 nM

Structure (SMILES): CC(C)CC1CN(C(=O)c2ccc(C(=O)N3C[C@@H](C(=O)N[C@H]4C[C@@H]4c4ccccc4)[C@H](C(=O)N[C@H]4C[C@@H]4c4ccccc4)C3)cc2)CC1C(=O)N[C@H]1C[C@@H]1c1ccccc1 (stereo not given in full)
EC50 (Toll-like receptor 2 [1]): 286 nM

Structure (SMILES): O=C(N[C@H]1C[C@@H]1c1ccccc1)C1CN(C(=O)c2ccc(C(=O)N3C[C@@H](C(=O)N[C@H]4C[C@@H]4c4ccccc4)[C@H](C(=O)N[C@H]4C[C@@H]4c4ccccc4)C3)cc2)CC1CF (stereo not given in full)
EC50 (Toll-like receptor 2 [1]): > 5000 nM

Structure (SMILES): CC1CN(C(=O)c2ccc(C(=O)N3C[C@@H](C(=O)N[C@H]4C[C@@H]4c4ccccc4)[C@H](C(=O)N[C@H]4C[C@@H]4c4ccccc4)C3)cc2)CC1C(=O)N[C@H]1C[C@@H]1c1ccccc1 (stereo not given in full)
EC50 (Toll-like receptor 2 [1]): 700 nM

Structure (SMILES): CCCCC1CN(C(=O)c2ccc(C(=O)N3C[C@@H](C(=O)N[C@H]4C[C@@H]4c4ccccc4)[C@H](C(=O)N[C@H]4C[C@@H]4c4ccccc4)C3)cc2)CC1C(=O)N[C@H]1C[C@@H]1c1ccccc1 (stereo not given in full)
EC50 (Toll-like receptor 2 [1]): 37 nM

Structure (SMILES): O=C(N[C@H]1C[C@@H]1c1ccccc1)C1CCN(C(=O)c2ccc(C(=O)N3C[C@@H](C(=O)N[C@H]4C[C@@H]4c4ccccc4)[C@H](C(=O)N[C@H]4C[C@@H]4c4ccccc4)C3)cc2)CC1
EC50 (Toll-like receptor 2 [1]): > 5000 nM

Structure (SMILES): O=C(N[C@H]1C[C@@H]1c1ccccc1)C1CN(C(=O)c2ccc(C(=O)N3C[C@@H](C(=O)N[C@H]4C[C@@H]4c4ccccc4)[C@H](C(=O)N[C@H]4C[C@@H]4c4ccccc4)C3)cc2)C1
EC50 (Toll-like receptor 2 [1]): > 5000 nM

Other lines, results leading:

EC50 (Toll-like receptor 2 [1]): > 5000 nM
Structure (SMILES): CC1CN(C(=O)c2ccc(C(=O)N3CC(C)[C@H](C(=O)N[C@H]4C[C@@H]4c4ccccc4)C3)cc2)CC1C(=O)N[C@H]1C[C@@H]1c1ccccc1 (stereo not given in full)

EC50 (Toll-like receptor 2 [1]): 177 nM
Structure (SMILES): CCC[C@@H]1CN(C(=O)c2ccc(C(=O)N3C[C@@H](C(=O)N[C@H]4C[C@@H]4c4ccccc4)[C@H](C(=O)N[C@H]4C[C@@H]4c4ccccc4)C3)cc2)C[C@H]1C(=O)N[C@H]1C[C@@H]1c1ccccc1

EC50 (Toll-like receptor 2 [1]): > 5000 nM
Structure (SMILES): CCCC1CN(C(=O)c2ccc(C(=O)N3CC(CCC)[C@H](C(=O)N[C@H]4C[C@@H]4c4ccccc4)C3)cc2)CC1C(=O)N[C@H]1C[C@@H]1c1ccccc1 (stereo not given in full)

EC50 (Toll-like receptor 2 [1]): > 5000 nM
Structure (SMILES): CC(C)C1CN(C(=O)c2ccc(C(=O)N3CC(C(C)C)[C@H](C(=O)N[C@H]4C[C@@H]4c4ccccc4)C3)cc2)CC1C(=O)N[C@H]1C[C@@H]1c1ccccc1 (stereo not given in full)

EC50 (Toll-like receptor 2 [1]): 87 nM
Structure (SMILES): CCC[C@H]1CN(C(=O)c2ccc(C(=O)N3C[C@@H](C(=O)N[C@H]4C[C@@H]4c4ccccc4)[C@H](C(=O)N[C@H]4C[C@@H]4c4ccccc4)C3)cc2)C[C@@H]1C(=O)N[C@H]1C[C@@H]1c1ccccc1

EC50 (Toll-like receptor 2 [1]): > 5000 nM
Structure (SMILES): CCC1CN(C(=O)c2ccc(C(=O)N3CC(CC)[C@H](C(=O)N[C@H]4C[C@@H]4c4ccccc4)C3)cc2)CC1C(=O)N[C@H]1C[C@@H]1c1ccccc1 (stereo not given in full)

EC50 (Toll-like receptor 2 [1]): 1500 nM
Structure (SMILES): CCCCC1CN(C(=O)c2ccc(C(=O)N3CC(CCCC)[C@H](C(=O)N[C@H]4C[C@@H]4c4ccccc4)C3)cc2)CC1C(=O)N[C@H]1C[C@@H]1c1ccccc1 (stereo not given in full)

EC50 (Toll-like receptor 2 [1]): > 5000 nM
Structure (SMILES): CC(C)CC1CN(C(=O)c2ccc(C(=O)N3CC(CC(C)C)[C@H](C(=O)N[C@H]4C[C@@H]4c4ccccc4)C3)cc2)CC1C(=O)N[C@H]1C[C@@H]1c1ccccc1 (stereo not given in full)
